Laboratory results taken from US20100081718A1, “CO[…]-2-DELTA LIGANDS” (Pfizer Inc, priority 2003, published 2010).
Where a name gives a salt, the structure may show the parent alone.

Tests used:
[1] = Plasma concentration (Cmax) of gabapentin in the rat

In the case of CCC[C@@H](C)C[C@H](N)CC(=O)O.Cl, the melting point is reported as 142.5 to 142.7 °C.

For CCCC[C@@H](C)C[C@H](N)CC(=O)O (as salt: hydrochloride), the melting point was 142.5 to 143.3 °C.

NCC1(CC(=O)O)CCCCC1 [gabapentin, 1-(aminomethyl)-cyclohexylacetic acid] gave a Cmax [1] of 520 to 10500 ng/mL.
